pIC50: −log10 of the molar value.
The compounds below were run on DLD-1 BRCA2(−/−) Cell (assay: Cell viability assay (Resazurin) in DLD1-BRCA2 cells). Conditions: Homo sapiens, DLD-1, 336 h, 14 days, 1,500 cells/well, final DMSO 1%.
Format: cell-based
Procedure: DLD1-BRCA2 KG (Horizon Discovery, Cat #HD 105-007) cells and DLD1-parental cells were maintained in culture media (RPMI-1640 including 2 mM L-glutamin and 25 mM sodium bicarbonate, supplemented with 10% FBS), at 37° C. in a humidified atmosphere with 5% CO2. Cells were seeded at the final concentration of 1,500 cells/well (DLD1-BRCA2 KG) and 600 cells/well (DLD1-parental) in a 96-well plate. Four hours later, test compounds were added (the final concentration of DMSO was 1%) to the cells and media were replaced every 3-4 days for 14 days. To measure viability, cells were incubated in culture media supplemented with 0.1 mg/ml of Resazurin (Merck, Cat #R7017) for 4 hours. The fluorescence was measured at Ex/Em=560 nm/590 nm using EnSight multimode plate reader (Perkin Elmer). Data analysis and IC50 calculation was done using GraphPad Prism (Version 10.0.2).

Structure (SMILES)	pIC50
CCN1CCN(c2cnc(C#CCN(C(=O)[C@@H]3CCS(=O)(=O)N3c3cc(C(F)(F)F)cc(C)n3)c3ccc(F)c(C)c3)cn2)CC1 [Example 50, (S)-N-(3-(5-(4-ethylpiperazin-1-yl)pyrazin-2-yl)prop-2-yn-1-yl)-N-(4-fluoro-3-methylphenyl)-2-(6-methyl-4-(trifluoromethyl)pyridin-2-yl)isothiazolidine-3-carboxamide 1,1-dioxide]	> 6.00
CCN1CCN(c2cnc(C#CCN(C(=O)[C@@H]3CCS(=O)(=O)N3c3cc(C(F)(F)F)cc(C)n3)c3cc(C)ccc3F)cn2)CC1 [Example 51, (S)-N-(3-(5-(4-ethylpiperazin-1-yl)pyrazin-2-yl)prop-2-yn-1-yl)-N-(2-fluoro-5-methylphenyl)-2-(6-methyl-4-(trifluoromethyl)pyridin-2-yl)isothiazolidine-3-carboxamide 1,1-dioxide]	> 6.00
Cc1cc(C(F)(F)F)cc(N2[C@H](C(=O)N(CC#Cc3cnc(N4C[C@H](C)N[C@@H](C)C4)cn3)c3ccc(F)c(C)c3)CCS2(=O)=O)n1 [Example 52, (S)-N-(3-(5-((3S,5S)-3,5-dimethylpiperazin-1-yl)pyrazin-2-yl)prop-2-yn-1-yl)-N-(4-fluoro-3-methylphenyl)-2-(6-methyl-4-(trifluoromethyl)pyridin-2-yl)isothiazolidine-3-carboxamide 1,1-dioxide]	> 6.00
Cc1cc(C(F)(F)F)cc(N2[C@H](C(=O)N(CC#Cc3cnc(N4C[C@H](C)N(C(C)C)[C@@H](C)C4)cn3)c3ccc(F)c(C)c3)CCS2(=O)=O)n1 [Example 53, (S)-N-(4-fluoro-3-methylphenyl)-N-(3-(5-((3S,5S)-4-isopropyl-3,5-dimethylpiperazin-1-yl)pyrazin-2-yl)prop-2-yn-1-yl)-2-(6-methyl-4-(trifluoromethyl)pyridin-2-yl)isothiazolidine-3-carboxamide 1,1-dioxide]	> 6.00
Cc1cc(C(F)(F)F)cc(N2[C@@H](C(=O)N(CC#Cc3cnc(N4C[C@H](C)N(C(C)C)[C@@H](C)C4)cn3)c3ccc(F)c(C)c3)CCS2(=O)=O)n1 [Example 54, (R)-N-(4-fluoro-3-methylphenyl)-N-(3-(5-((3S,5S)-4-isopropyl-3,5-dimethylpiperazin-1-yl)pyrazin-2-yl)prop-2-yn-1-yl)-2-(6-methyl-4-(trifluoromethyl)pyridin-2-yl)isothiazolidine-3-carboxamide 1,1-dioxide]	< 5.29
Cc1cc(C(F)(F)F)cc(N2[C@H](C(=O)N(CC#Cc3cnc(N4[C@H](C)CN(C(C)C)C[C@H]4C)cn3)c3ccc(F)c(C)c3)CCS2(=O)=O)n1 [Example 55, (S)-N-(4-fluoro-3-methylphenyl)-N-(3-(5-((2R,6R)-4-isopropyl-2,6-dimethylpiperazin-1-yl)pyrazin-2-yl)prop-2-yn-1-yl)-2-(6-methyl-4-(trifluoromethyl)pyridin-2-yl)isothiazolidine-3-carboxamide 1,1-dioxide]	> 6.00
Cc1cc(C(F)(F)F)cc(N2[C@H](C(=O)N(CC#Cc3cnc(-c4c[nH]nn4)cn3)c3ccc(F)c(C)c3)CCS2(=O)=O)n1 [Example 56, (S)-N-(3-(5-(1H-1,2,3-triazol-4-yl)pyrazin-2-yl)prop-2-yn-1-yl)-N-(4-fluoro-3-methylphenyl)-2-(6-methyl-4-(trifluoromethyl)pyridin-2-yl)isothiazolidine-3-carboxamide 1,1-dioxide]	> 6.00
Cc1cc(C(F)(F)F)cc(N2[C@H](C(=O)N(CC#Cc3cnc(-n4ccnn4)cn3)c3ccc(F)c(C)c3)CCS2(=O)=O)n1 [Example 57, (S)-N-(3-(5-(1H-1,2,3-triazol-1-yl)pyrazin-2-yl)prop-2-yn-1-yl)-N-(4-fluoro-3-methylphenyl)-2-(6-methyl-4-(trifluoromethyl)pyridin-2-yl)isothiazolidine-3-carboxamide 1,1-dioxide]	> 6.00
Cc1cc(C(F)(F)F)cc(N2[C@H](C(=O)N(CC#Cc3cnc(-c4ncon4)cn3)c3ccc(F)c(C)c3)CCS2(=O)=O)n1 [Example 58, (S)-N-(3-(5-(1,2,4-oxadiazol-3-yl)pyrazin-2-yl)prop-2-yn-1-yl)-N-(4-fluoro-3-methylphenyl)-2-(6-methyl-4-(trifluoromethyl)pyridin-2-yl)isothiazolidine-3-carboxamide 1,1-dioxide]	> 6.00
Cc1cc(C(F)(F)F)cc(N2[C@H](C(=O)N(CC#Cc3cnc(C#N)cn3)c3ccc(F)c(C)c3)CCS2(=O)=O)n1 [Example 59, (S)-N-(3-(5-cyanopyrazin-2-yl)prop-2-yn-1-yl)-N-(4-fluoro-3-methylphenyl)-2-(6-methyl-4-(trifluoromethyl)pyridin-2-yl)isothiazolidine-3-carboxamide 1,1-dioxide]	> 6.00
Cc1cc(C(F)(F)F)cc(N2[C@H](C(=O)N(CC#Cc3cnc(C(=O)O)cn3)c3ccc(F)c(C)c3)CCS2(=O)=O)n1 [Example 60, (S)-5-(3-(N-(4-fluoro-3-methylphenyl)-2-(6-methyl-4-(trifluoromethyl)pyridin-2-yl)-1,1-dioxidoisothiazolidine-3-carboxamido)prop-1-yn-1-yl)pyrazine-2-carboxylic acid]	< 5.29
Cc1cc(C(F)(F)F)cc(N2[C@H](C(=O)N(CC#Cc3cnc(C(N)=O)cn3)c3ccc(F)c(C)c3)CCS2(=O)=O)n1 [Example 61, (S)-N-(3-(5-carbamoylpyrazin-2-yl)prop-2-yn-1-yl)-N-(4-fluoro-3-methylphenyl)-2-(6-methyl-4-(trifluoromethyl)pyridin-2-yl)isothiazolidine-3-carboxamide 1,1-dioxide]	< 5.29
Cc1cc(C(F)(F)F)cc(N2[C@H](C(=O)N(CC#Cc3cnc(C(N)=O)c(C)n3)c3ccc(F)c(C)c3)CCS2(=O)=O)n1 [Example 62, (S)-N-(3-(5-carbamoyl-6-methylpyrazin-2-yl)prop-2-yn-1-yl)-N-(4-fluoro-3-methylphenyl)-2-(6-methyl-4-(trifluoromethyl)pyridin-2-yl)isothiazolidine-3-carboxamide 1,1-dioxide]	> 6.00
Cc1cc(C(F)(F)F)cc(N2[C@H](C(=O)N(CC#Cc3cncc(C(N)=O)n3)c3ccc(F)c(C)c3)CCS2(=O)=O)n1 [Example 63, (S)-N-(3-(6-carbamoylpyrazin-2-yl)prop-2-yn-1-yl)-N-(4-fluoro-3-methylphenyl)-2-(6-methyl-4-(trifluoromethyl)pyridin-2-yl)isothiazolidine-3-carboxamide 1,1-dioxide]	> 6.00
Cc1cc(C(F)(F)F)cc(N2[C@H](C(=O)N(CC#Cc3nccnc3C(N)=O)c3ccc(F)c(C)c3)CCS2(=O)=O)n1 [Example 64, (S)-N-(3-(3-carbamoylpyrazin-2-yl)prop-2-yn-1-yl)-N-(4-fluoro-3-methylphenyl)-2-(6-methyl-4-(trifluoromethyl)pyridin-2-yl)isothiazolidine-3-carboxamide 1,1-dioxide]	> 6.00
Cc1cc(C(F)(F)F)cc(N2[C@H](C(=O)N(CC#Cc3cnc(S(N)(=O)=O)cn3)c3ccc(F)c(C)c3)CCS2(=O)=O)n1 [Example 65, (S)-N-(4-fluoro-3-methylphenyl)-2-(6-methyl-4-(trifluoromethyl)pyridin-2-yl)-N-(3-(5-sulfamoylpyrazin-2-yl)prop-2-yn-1-yl)isothiazolidine-3-carboxamide 1,1-dioxide]	> 6.00
Cc1cc(C(F)(F)F)cc(N2[C@H](C(=O)N(CC#Cc3cncc(S(N)(=O)=O)n3)c3ccc(F)c(C)c3)CCS2(=O)=O)n1 [Example 66, (S)-N-(4-fluoro-3-methylphenyl)-2-(6-methyl-4-(trifluoromethyl)pyridin-2-yl)-N-(3-(6-sulfamoylpyrazin-2-yl)prop-2-yn-1-yl)isothiazolidine-3-carboxamide 1,1-dioxide]	> 6.00
CNC(=O)c1cnc(C#CCN(C(=O)[C@@H]2CCS(=O)(=O)N2c2cc(C(F)(F)F)cc(C)n2)c2ccc(F)c(C)c2)cn1 [Example 67, (S)-N-(4-fluoro-3-methylphenyl)-2-(6-methyl-4-(trifluoromethyl)pyridin-2-yl)-N-(3-(5-(methylcarbamoyl)pyrazin-2-yl)prop-2-yn-1-yl)isothiazolidine-3-carboxamide 1,1-dioxide]	< 5.29
Cc1cc(C(F)(F)F)cc(N2[C@H](C(=O)N(CC#Cc3cnc(C(=O)N(C)C)cn3)c3ccc(F)c(C)c3)CCS2(=O)=O)n1 [Example 68, (S)-N-(3-(5-(dimethylcarbamoyl)pyrazin-2-yl)prop-2-yn-1-yl)-N-(4-fluoro-3-methylphenyl)-2-(6-methyl-4-(trifluoromethyl)pyridin-2-yl)isothiazolidine-3-carboxamide 1,1-dioxide]	> 6.00
Cc1cc(C(F)(F)F)cc(N2[C@H](C(=O)N(CC#Cc3cnc(C(=O)N4CCOCC4)cn3)c3ccc(F)c(C)c3)CCS2(=O)=O)n1 [Example 69, (S)-N-(4-fluoro-3-methylphenyl)-2-(6-methyl-4-(trifluoromethyl)pyridin-2-yl)-N-(3-(5-(morpholine-4-carbonyl)pyrazin-2-yl)prop-2-yn-1-yl)isothiazolidine-3-carboxamide 1,1-dioxide]	> 6.00
Cc1cc(C(F)(F)F)cc(N2[C@H](C(=O)N(CC#Cc3cncc(C(=O)N4CCOCC4)n3)c3ccc(F)c(C)c3)CCS2(=O)=O)n1 [Example 70, (S)-N-(4-fluoro-3-methylphenyl)-2-(6-methyl-4-(trifluoromethyl)pyridin-2-yl)-N-(3-(6-(morpholine-4-carbonyl)pyrazin-2-yl)prop-2-yn-1-yl)isothiazolidine-3-carboxamide 1,1-dioxide]	5.30 to 5.96
